Test results from patent publication US11548946B2, “Carrier-PD-L1 binding agent compositions for treating cancers” (Mayo Foundation for Medical Education and Research, priority 2016, dated 2023).

Legend:
CD20 = target: T1, CD20 (Homo sapiens, UniProt P11836); experiment: Flow cytometry: blocking of fluorescent anti-CD20 labeling of Daudi cells; format: cell-based; conditions: CD20 positive Daudi lymphoma cells pretreated prior to CD20 labeling
T1 construct: CD20 positive Daudi lymphoma cells; endogenous in cells; host or cells: Daudi lymphoma cells
T1 sequence (P11836 1-297): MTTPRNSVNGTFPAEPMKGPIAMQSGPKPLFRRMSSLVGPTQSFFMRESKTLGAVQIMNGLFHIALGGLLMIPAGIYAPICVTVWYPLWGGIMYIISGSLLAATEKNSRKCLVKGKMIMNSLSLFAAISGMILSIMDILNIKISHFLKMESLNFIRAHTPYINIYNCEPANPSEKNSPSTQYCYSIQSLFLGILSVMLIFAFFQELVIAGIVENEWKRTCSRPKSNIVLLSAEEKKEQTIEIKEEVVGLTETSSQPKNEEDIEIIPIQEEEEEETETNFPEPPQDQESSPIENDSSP
Source text: FIGS. 1A-1F depicts the results of an experiment in which CD20 positive Daudi lymphoma cells were labeled with fluorescent tagged anti-human CD20 or isotype matched control in panels F and A, respectively, and analyzed by flow cytometry. In the other panels, the Daudi cells were pretreated with ABRAXANE® (ABX; FIG. 1B), ABX/rituximab nanoparticles (AR160; FIG. 1C), lyophilized and resuspended AR160 (AR160L; FIG. 1D), or Rituxan (FIG. 1E) prior to CD20 labeling.
CD20 positive Daudi lymphoma cells were labeled with fluorescent tagged anti-human CD20 or isotype matched control in panel F and A, respectively, and analyzed by flow cytometry. In the other panels, the Daudi cells were pretreated with ABX, AR160, AR160L (AR160 lyophilized and resuspended into a solution suitable for injection), or Rituxan prior to CD20 labeling.

ABX = experiment: Biolayer interferometry (BLItz) of biotinylated atezolizumab on streptavidin probes exposed to ABX; conditions: ABX at 100, 500, 1000 μg/mL in 1×PBS; read-out: Kd (binding affinity between atezolizumab and ABX)
Description: Biolayer interferometry (BLItz) (Forte Bioscience) was performed using streptavidin probes.
To determine whether atezolizumab and ABX are capable of interacting to form nanoparticle complexes, Biolayer interferometry (BLItz) (Forte Bioscience) was performed using streptavidin probes. 100 ug/ml of biotinylated atezolizumab in 1×PBS was bound to the streptavidin probe. After washing unbound atezolizumab from the probe, the antibody-bound probe was exposed to ABX at concentrations of 100, 500, 1000 μg/mL in 1×PBS. An antibody probe exposed to PBS was used as background and background was subtracted. BLItz software was used to calculate dissociation constants (FIG. 7).

[1] = test system: PD-L1 positive C8161 melanoma tumor cells; experiment: In vivo efficacy in athymic nude mice bearing C8161 melanoma tumors; conditions: single IV tail vein dose; atezolizumab 18 mg/kg, ABX 45 mg/kg, AA130 18 mg/kg atezolizumab and 45 mg/kg ABX
Description: FIGS. 11A-11D show the change in tumor volume over time in mice that were injected with 2×10^6 PD-L1 positive C8161 melanoma tumor cells, then treated by 100 ul IV tail vein injection with saline (FIG. 11A), atezolizumab alone (18 mg/kg; FIG. 11B), ABX alone (45 mg/kg; FIG. 11C) and AA130 (18 mg/kg atezolizumab and 45 mg/kg ABX; FIG. 11D) one time. Tumor growth was monitored 3 times per week. Tumor size was calculated with the equation: (length×width^2)/2.
Kaplan Meier curves were generated using Graph Pad software. The median survival for each group was 14, 13, 16, and 21.5 days for saline, atezolizumab, Abraxane and AA130, respectively. Survival differences between AA130 and all other groups were significant, with p-values of 0.0008 for saline, 0.0015 for atezolizumab, and 0.0113 for ABX.
Athymic nude mice (Harlan Sprague Dawley) were injected with 2×10^6 PD-L1 positive C8161 melanoma tumor cells. The tumors were allowed to grow until about 600 mm^3 and were treated by 100 μl IV tail vein injection with saline, atezolizumab alone (18 mg/kg), ABX alone (45 mg/kg) and AA130 (18 mg/kg atezolizumab and 45 mg/kg ABX) one time (FIGS. 11A-11D). Tumor growth was monitored 3 times/week. Tumor size was calculated with the equation: (length×width^2)/2.
Kaplan Meier curves were generated using Graph Pad software. […]

| CD20 binding of fluorescent anti-CD20 antibody after pretreatment (CD20) | Substance | Kd (ABX) | median survival [1] |
| --- | --- | --- | --- |
| specifically blocked | Rituxan: rituximab, anti-CD20 antibody used as free antibody control |  |  |
|  | atezolizumab: anti-PD-L1 mAb, humanized monoclonal antibody | 1.46 nM | 13 days |
